Consider 31 molecules from patent publication US10526320B2, “Pyrrolidine derivatives as PPAR agonists” (GUANGDONG RAYNOVENT BIOTECH CO., LTD., priority 2016, dated 2020).

Read-outs that look alike come from different tables or passages of the source.

One assay concerns the target T1, PPAR Alpha (Homo sapiens, UniProt Q07869).
T1 sequence (Q07869 1-468): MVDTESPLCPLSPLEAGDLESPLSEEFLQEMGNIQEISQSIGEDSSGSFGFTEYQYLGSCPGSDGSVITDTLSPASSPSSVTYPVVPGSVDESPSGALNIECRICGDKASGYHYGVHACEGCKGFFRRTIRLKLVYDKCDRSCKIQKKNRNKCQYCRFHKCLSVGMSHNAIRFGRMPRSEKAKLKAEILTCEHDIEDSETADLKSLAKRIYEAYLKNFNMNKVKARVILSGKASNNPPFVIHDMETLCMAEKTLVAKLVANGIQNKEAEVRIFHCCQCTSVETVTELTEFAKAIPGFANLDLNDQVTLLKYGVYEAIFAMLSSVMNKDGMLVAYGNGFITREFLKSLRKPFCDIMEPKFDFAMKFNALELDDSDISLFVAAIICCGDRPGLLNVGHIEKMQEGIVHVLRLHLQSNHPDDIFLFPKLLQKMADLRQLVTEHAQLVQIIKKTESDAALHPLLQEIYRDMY
Nature of the assay: PathHunter NHR protein interaction / nuclear translocation agonist test, PPAR Alpha. Format: cell-based. Particulars: for Emax: read-out: PPAR Alpha Maximum Activation Response %.

The next assay has as its target T2, PPAR Delta (Homo sapiens, UniProt Q03181).
T2 sequence (Q03181 1-441): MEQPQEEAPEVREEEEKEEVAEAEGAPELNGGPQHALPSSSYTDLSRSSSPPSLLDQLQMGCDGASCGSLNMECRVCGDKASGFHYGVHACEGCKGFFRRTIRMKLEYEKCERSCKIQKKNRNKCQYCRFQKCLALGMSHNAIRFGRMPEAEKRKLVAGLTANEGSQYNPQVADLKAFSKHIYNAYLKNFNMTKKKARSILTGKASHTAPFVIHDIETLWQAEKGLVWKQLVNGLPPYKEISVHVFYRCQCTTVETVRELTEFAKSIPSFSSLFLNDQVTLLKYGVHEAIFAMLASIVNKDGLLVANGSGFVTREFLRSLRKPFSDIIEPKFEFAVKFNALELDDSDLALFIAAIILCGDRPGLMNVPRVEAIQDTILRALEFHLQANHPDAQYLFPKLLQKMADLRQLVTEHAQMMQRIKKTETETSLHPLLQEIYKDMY
Nature of the assay: PathHunter NHR protein interaction / nuclear translocation agonist test, PPAR Delta. The class given is cell-based. To be noted: for Emax: read-out: PPAR Delta Maximum Activation Response %.

Setting [1] is: agonist mode, read-out: PPAR Alpha EC50.
Where [2] appears, read: agonist mode, read-out: PPAR Delta EC50.
Where [3] appears, read: relative to known PPARδ agonist L-165,041 = 100%.

`CSc1ccc(C(=O)C2CN(C(=O)c3ccccc3)CC2c2cc(C)c(OC(C)(C)C(=O)O)c(C)c2)cc1` (single isomer, unassigned) [Compound 17]: the EC50 at PPAR Alpha (setting [1]) was greater than 250 nM.

As to `COC(=O)N1C[C@@H](C(=O)c2ccc(SC)cc2)[C@H](c2cc(C)c(OC(C)(C)C(=O)O)c(C)c2)C1` (single isomer, unassigned) [Compound 4], the “PPAR Alpha Maximum Activation Response %” value at PPAR Alpha is listed as “III (key: 100% ≥ I ≥ 80%; 80% ≥ II ≥ 50%; III < 50%)”. The EC50 on PPAR Alpha (setting [1]) is greater than 250 nM.

For `CSc1ccc(C(=O)C2CN(C(=O)Oc3ccccc3)CC2Cc2ccc(OC(C)(C)C(=O)O)cc2F)cc1` (single isomer, unassigned) [Compound 83], the EC50 at PPAR Alpha (setting [1]) lay in the range of 100 to 150 nM; on PPAR Delta (setting [2]), 200 to 250 nM. In addition, the Emax at PPAR Alpha and at PPAR Delta (setting [3]) was 80 to 100% throughout.

With `CSc1ccc(C(=O)C2CN(C(C)=O)CC2c2cc(C)c(OC(C)(C)C(=O)O)c(C)c2)cc1` (single isomer, unassigned) [Compound 21], the EC50 on PPAR Alpha (setting [1]) and at PPAR Delta (setting [2]) was greater than 250 nM in each case. Moreover, the Emax fell in the range of 80 to 100% at PPAR Alpha and 50 to 80% on PPAR Delta.

With `CSc1ccc(C(=O)[C@@H]2CN(C(=O)Oc3ccc(Cl)cc3Cl)C[C@H]2c2cc(C)c(OC(C)(C)C(=O)O)c(C)c2)cc1` (single isomer, unassigned) [Compound 41], the EC50 at PPAR Alpha (setting [1]) and at PPAR Delta (setting [2]) was less than 100 nM in each case. The Emax on PPAR Alpha and on PPAR Delta (setting [3]) was 80 to 100% each time.

For the molecule `CSc1ccc(C(=O)C2CN(C3COC3)C[C@@H]2CCc2cc(C)c(OC(C)(C)C(=O)O)c(C)c2)cc1` (mixture of isomers) [Compound 73], the EC50 on PPAR Alpha (setting [1]) was 200 to 250 nM; on PPAR Delta (setting [2]), greater than 250 nM. The Emax on PPAR Alpha and at PPAR Delta (setting [3]) was 80 to 100% in each case.

As to `CSc1ccc(C(=O)C2CN(C(=O)Oc3ccc(Cl)cc3)CC2c2cccc(OC(C)(C)C(=O)O)c2)cc1` (single isomer, unassigned) [Compound 33], the figures for the EC50 at PPAR Alpha (setting [1]) and at PPAR Delta (setting [2]) were 200 to 250 nM and greater than 250 nM, respectively. The Emax is 80 to 100% on PPAR Alpha and 50 to 80% on PPAR Delta.

In the case of `CSc1ccc(C(=O)C2CN(C(=O)Oc3ccccc3)CC2c2cccc(OC(C)(C)C(=O)O)c2)cc1` (stereo not drawn) [Compound 24], on PPAR Delta (setting [2]), the EC50 was greater than 250 nM. Moreover, the Emax on PPAR Delta was 80 to 100%.

As for `CSc1ccc(C(=O)C2CN(C(=O)Oc3ccccc3)CC2Cc2cccc(OC(C)(C)C(=O)O)c2)cc1` (single isomer, unassigned) [Compound 49], the EC50 on PPAR Delta (setting [2]) was 100 to 150 nM. Besides, on PPAR Delta, the Emax fell in the range of 50 to 80%.

On to `CSc1ccc(C(=O)C2CN(S(C)(=O)=O)CC2c2cc(C)c(OC(C)(C)C(=O)O)c(C)c2)cc1` (single isomer, unassigned) [Compound 18], for which the EC50 at PPAR Alpha (setting [1]) is 200 to 250 nM; at PPAR Delta (setting [2]) it was greater than 250 nM. The Emax at PPAR Alpha lay in the range of 80 to 100%; at PPAR Delta (setting [3]), 50 to 80%.

Consider `CSc1ccc(C(=O)C2CN(C(=O)Oc3ccc(Br)cc3)CC2Cc2cc(C)c(OC(C)(C)C(=O)O)c(C)c2)cc1` (stereo not drawn) [Compound 29], for which the EC50 on PPAR Alpha (setting [1]) and at PPAR Delta (setting [2]) was less than 100 nM in each case. In addition, the Emax at PPAR Alpha and on PPAR Delta was 80 to 100% each time.

As for `CSc1ccc(C(=O)[C@@H]2CN(C(=O)Oc3ccccc3)C[C@H]2CCc2cc(C)c(OC(C)(C)C(=O)O)c(C)c2)cc1` (single isomer, unassigned) [Compound 51], the EC50 on PPAR Alpha (setting [1]) and on PPAR Delta (setting [2]) was less than 100 nM throughout. Besides, the Emax on PPAR Delta is 80 to 100%.

With `CSc1ccc(C(=O)[C@H]2CN(C(=O)Oc3ccccc3)C[C@@H]2CCc2cc(C)c(OC(C)(C)C(=O)OC(C)C)c(C)c2)cc1` (single isomer, unassigned) [Compound 61], the EC50 on PPAR Alpha (PPAR Alpha EC50 nM) and on PPAR Delta (PPAR Delta EC50 nM) was greater than 250 nM each time. For the same molecule, the Emax at PPAR Alpha and on PPAR Delta was less than 50% throughout.

In the case of `CSc1ccc(C(=O)C2CN(C(=O)Oc3ccccc3)CC2Cc2cccc(OC(C)(C)C(=O)O)c2)cc1` (single isomer, unassigned) [Compound 50], the “PPAR Delta Maximum Activation Response %” value at PPAR Delta is listed as “II (key: 100% ≥ I ≥ 80%; 80% ≥ II ≥ 50%; III < 50%)”. In addition, the EC50 at PPAR Delta (setting [2]) was in the range of 150 to 200 nM.

`CSc1ccc(C(=O)C2CN(C(=O)c3ccccc3)CC2c2cc(C)c(OC(C)(C)C(=O)O)c(C)c2)cc1` (single isomer, unassigned) [Compound 16]: at PPAR Alpha (setting [1]), the EC50 is greater than 250 nM. Also, at PPAR Alpha, the Emax was in the range of 80 to 100%.

`COC(=O)N1CC(Cc2ccc(SC)cc2)C(c2cc(C)c(OC(C)(C)C(=O)O)c(C)c2)C1` (single isomer, unassigned) [Compound 22]: the EC50 on PPAR Alpha (setting [1]) was greater than 250 nM. The Emax at PPAR Alpha is less than 50%.

For `CSc1ccc(C(=O)[C@@H]2CN(C(C)=O)C[C@H]2CCc2cc(C)c(OC(C)(C)C(=O)O)c(C)c2)cc1` (racemic) [Compound 71], the results for the EC50 at PPAR Alpha (setting [1]) and on PPAR Delta (setting [2]) were 200 to 250 nM and 150 to 200 nM, respectively. Further, the Emax at PPAR Alpha and at PPAR Delta was 80 to 100% throughout.

For `CSc1ccc(C(=O)[C@@H]2CN(S(C)(=O)=O)C[C@H]2CCc2cc(C)c(OC(C)(C)C(=O)O)c(C)c2)cc1` (single isomer, unassigned) [Compound 75], the EC50 at PPAR Alpha (setting [1]) was greater than 250 nM; on PPAR Delta (setting [2]) it was 200 to 250 nM. The Emax on PPAR Alpha and at PPAR Delta (setting [3]) was 80 to 100% in each case.

For the molecule `CSc1ccc(C(=O)C2CN(C(=O)Oc3ccc(Cl)cc3)CC2Cc2cc(C)c(OC(C)(C)C(=O)O)c(C)c2)cc1` (single isomer, unassigned) [Compound 27], the EC50 on PPAR Alpha (setting [1]) and at PPAR Delta (setting [2]) was less than 100 nM throughout. Also, the Emax on PPAR Alpha lay in the range of 80 to 100%; on PPAR Delta, 50 to 80%.

For `Cc1cc(CCC2CN(C(=O)Oc3ccccc3)CC2C(=O)c2ccccc2)cc(C)c1OC(C)(C)C(=O)O` (single isomer, unassigned) [Compound 62], the EC50 on PPAR Alpha (setting [1]) and on PPAR Delta (setting [2]) was 100 to 150 nM each time. The Emax at PPAR Alpha and at PPAR Delta (setting [3]) was 80 to 100% each time.

Consider `CCOC(=O)N1CC(C(=O)c2ccc(SC)cc2)C(c2cc(C)c(OC(C)(C)C(=O)O)c(C)c2)C1` (single isomer, unassigned) [Compound 6], for which, at PPAR Alpha (setting [1]), the EC50 was greater than 250 nM. On PPAR Alpha, the Emax lay in the range of 50 to 80%.

On to `CSc1ccc(C(=O)C2CN(C(=O)OC3CCCC3)CC2CCc2cc(C)c(OC(C)(C)C(=O)O)c(C)c2)cc1` (single isomer, unassigned) [Compound 74], for which the EC50 on PPAR Alpha (setting [1]) is less than 100 nM; on PPAR Delta (setting [2]), 100 to 150 nM. In addition, the Emax on PPAR Alpha and on PPAR Delta (setting [3]) was 80 to 100% throughout.

For the molecule `CSc1ccc(C(=O)[C@@H]2CN(C(=O)Oc3ccc(Cl)cc3F)C[C@H]2c2cc(C)c(OC(C)(C)C(=O)O)c(C)c2)cc1` (single isomer, unassigned) [Compound 42], the EC50 at PPAR Alpha (setting [1]) and on PPAR Delta (setting [2]) was less than 100 nM throughout. Also, the Emax at PPAR Alpha and at PPAR Delta (setting [3]) was 80 to 100% throughout.

Regarding `CSc1ccc(C(=O)[C@H]2CN(C)C[C@@H]2c2cc(C)c(OC(C)(C)C(=O)O)c(C)c2)cc1` (racemic) [Compound 1], at PPAR Alpha (setting [1]), the EC50 was greater than 250 nM. Moreover, the Emax on PPAR Alpha is less than 50%.

As to `CC(C)(Sc1ccc(CCN(CCCCC2CCCCC2)C(=O)NC2CCCCC2)cc1)C(=O)O` [GW7647, reference compound], at PPAR Alpha (reference agonist, indicated to be 100% (Note 1)), the Emax was determined as 100%.

In the case of `CSc1ccc(C(=O)C2CN(C(=O)Oc3ccc(C)cc3)CC2c2cc(C)c(OC(C)(C)C(=O)O)c(C)c2)cc1` (single isomer, unassigned) [Compound 39], the results for the EC50 at PPAR Alpha (setting [1]) and on PPAR Delta (setting [2]) were less than 100 nM and 100 to 150 nM, respectively. Besides, the Emax on PPAR Alpha and on PPAR Delta was 80 to 100% throughout.

In the case of `CSc1ccc(C(=O)[C@@H]2CN(C(=O)Oc3ccccc3)C[C@H]2CCc2cc(C)c(OC(C)(C)C(=O)O)c(C)c2)cc1` (single isomer, unassigned) [Compound 52], the EC50 on PPAR Alpha (setting [1]) and on PPAR Delta (setting [2]) was less than 100 nM in each case.

`COC(=O)N1CC(Cc2ccc(SC)cc2)C(c2cc(C)c(OC(C)(C)C(=O)O)c(C)c2)C1` (single isomer, unassigned) [Compound 23]: at PPAR Alpha (setting [1]), the EC50 was greater than 250 nM.

For `CSc1ccc(C(=O)C2CN(C(=O)OCc3ccccc3)CC2c2cc(C)c(OC(C)(C)C(=O)O)c(C)c2)cc1` (single isomer, unassigned) [Compound 8], at PPAR Alpha (setting [1]), the EC50 was greater than 250 nM. In addition, the Emax at PPAR Alpha lay within 50 to 80%.

Turning to `CSc1ccc(C(=O)[C@H]2CNC[C@@H]2c2cc(C)c(OC(C)(C)C(=O)O)c(C)c2)cc1` (racemic) [Compound 3], on PPAR Alpha (setting [1]), the EC50 was greater than 250 nM. At PPAR Alpha, the Emax is less than 50%.

In the case of `CSc1ccc(C(=O)[C@H]2CN(Cc3ccccc3)C[C@@H]2c2cc(C)c(OC(C)(C)C(=O)O)c(C)c2)cc1` (racemic) [Compound 2], the EC50 at PPAR Alpha (setting [1]) is greater than 250 nM. Further, the Emax at PPAR Alpha is less than 50%.
